Measurements reported in patent US11254633B2, “Cannabis thin layer decarboxylation” (priority 2018, dated 2022).
Where two headings read alike, the source gives them in different places.

Assays:
[1] = target: CB one receptor (Homo sapiens, UniProt P21554); settings: fold lower than THC; cited from earlier work
[2] = target: CB 2 receptor (Homo sapiens, UniProt P34972); settings: fold higher than THC; cited from earlier work
[3] = 110° C., FIG. 7, cited from earlier work
[4] = for time to full conversion (decarboxylation): thin layer, 400 deg F.
[5] = aqueous; cited from earlier work
[6] = cited from earlier work
[7] = tested on: pain patients; settings: initial studies in pain patients; cited from earlier work
[8] = cited from earlier work; remark: listed apart in the source
[9] = two-13-year-olds in one study; cited from earlier work
[10] = CBD plasma concentration after dosing; format: in vivo
Experimental: The dosing of CBD for a given range of activity is predictable, Table 1. […] This is a desirable group of activities to select. CBD at one micromolar is equivalent to 0.3 ng per ML and 10 micromolar is equivalent to 3 ng per ML. AUC for CBD ranges widely for different subjects but reportedly averages about 4 ng hour per ML. A single dose of 4 mg would provide an average 0.16 ng/ml concentration over 24 hours. […] Thus in 80 mg dose would provide an average of 10 micromolar over 24 hours. A single dose would produce a single large peak with return to baseline within about 10 hours, again this is variable between individuals. It is known that as frequency of dosing increases the plasma concentration will approach a steady-state or constant value between doses, eliminating the large peaks and valleys associated with infrequent doses. A reasonable dosing schedule might be 25 mg CBD three times daily to achieve 75 mg daily, about 9.4 micromolar average, at the high end of the 1-10 uM range. Similarly a 2.5 mg dose every eight hours would yield an approximately 1 micromolar average concentration.

[11] = plant material in a 110° C. oven, Taschwer; cited from earlier work
[12] = cited from earlier work; remark: listed apart in the source
[13] = tested on: alpha1 adrenoreceptors and u-opioid receptors; settings: CBD at 1-10 uM; cited from earlier work
[14] = tested on: Human keratinocyte; settings: CBD at 1-10 uM; cited from earlier work
[15] = target: TRPV1 receptor (Homo sapiens, UniProt Q8NER1); settings: CBD at 1-10 uM; cited from earlier work
[16] = tested on: neuroprotection; settings: CBD at 1-10 uM; cited from earlier work
[17] = tested on: Membrane; settings: CBD at 1-10 uM; cited from earlier work
[18] = target: T1, 5HT-1a receptor (Homo sapiens, UniProt P08908); settings: CBD at >10 uM; cited from earlier work
T1 sequence (P08908 1-422): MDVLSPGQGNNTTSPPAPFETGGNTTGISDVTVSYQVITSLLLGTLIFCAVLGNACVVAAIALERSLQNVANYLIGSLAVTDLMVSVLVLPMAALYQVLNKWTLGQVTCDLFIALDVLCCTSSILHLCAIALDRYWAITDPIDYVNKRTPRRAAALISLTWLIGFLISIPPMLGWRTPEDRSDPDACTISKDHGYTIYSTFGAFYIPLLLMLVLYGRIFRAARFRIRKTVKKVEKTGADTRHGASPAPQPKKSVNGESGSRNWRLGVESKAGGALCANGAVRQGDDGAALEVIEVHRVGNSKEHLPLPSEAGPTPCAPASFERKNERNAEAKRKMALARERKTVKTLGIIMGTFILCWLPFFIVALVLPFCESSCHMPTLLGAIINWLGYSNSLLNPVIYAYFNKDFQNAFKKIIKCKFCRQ

[19] = tested on: onychomycosis; settings: cited from earlier work
[20] = 100° C. and 110° C., FIG. 6C, 6D, sum decreases significantly

Sequence of TRPV1 receptor (Q8NER1 whole entry): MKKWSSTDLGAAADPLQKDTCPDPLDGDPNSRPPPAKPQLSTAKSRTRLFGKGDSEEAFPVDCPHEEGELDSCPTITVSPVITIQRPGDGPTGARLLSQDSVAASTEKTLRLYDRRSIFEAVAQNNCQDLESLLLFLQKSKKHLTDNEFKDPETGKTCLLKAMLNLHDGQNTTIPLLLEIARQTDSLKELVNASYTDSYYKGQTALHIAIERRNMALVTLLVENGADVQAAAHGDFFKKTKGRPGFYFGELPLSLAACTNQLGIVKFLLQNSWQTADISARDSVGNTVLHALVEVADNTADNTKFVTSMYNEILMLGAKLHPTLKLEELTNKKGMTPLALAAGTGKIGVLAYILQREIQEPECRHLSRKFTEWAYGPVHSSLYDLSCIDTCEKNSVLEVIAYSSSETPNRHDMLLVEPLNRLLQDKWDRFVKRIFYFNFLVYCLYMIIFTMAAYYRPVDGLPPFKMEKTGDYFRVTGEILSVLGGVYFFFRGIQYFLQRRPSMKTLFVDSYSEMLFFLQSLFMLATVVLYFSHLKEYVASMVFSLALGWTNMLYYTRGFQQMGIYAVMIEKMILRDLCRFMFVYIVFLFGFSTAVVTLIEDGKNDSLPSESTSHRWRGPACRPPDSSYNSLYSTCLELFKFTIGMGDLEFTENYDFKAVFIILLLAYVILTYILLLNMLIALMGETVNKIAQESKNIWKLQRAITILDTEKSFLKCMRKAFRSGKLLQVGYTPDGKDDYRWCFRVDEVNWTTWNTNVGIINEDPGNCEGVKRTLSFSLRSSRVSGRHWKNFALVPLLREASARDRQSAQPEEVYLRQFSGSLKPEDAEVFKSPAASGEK
Sequence of CB 2 receptor (P34972 whole entry): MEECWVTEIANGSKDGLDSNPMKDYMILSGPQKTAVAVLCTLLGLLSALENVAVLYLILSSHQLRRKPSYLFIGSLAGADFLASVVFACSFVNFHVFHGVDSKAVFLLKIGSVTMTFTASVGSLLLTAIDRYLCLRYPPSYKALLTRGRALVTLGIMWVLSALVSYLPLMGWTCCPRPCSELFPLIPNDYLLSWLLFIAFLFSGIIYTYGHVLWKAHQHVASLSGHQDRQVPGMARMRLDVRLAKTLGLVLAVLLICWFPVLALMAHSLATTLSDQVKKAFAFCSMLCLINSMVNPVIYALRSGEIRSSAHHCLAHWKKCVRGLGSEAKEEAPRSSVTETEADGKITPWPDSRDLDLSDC
Sequence of CB one receptor (P21554 whole entry): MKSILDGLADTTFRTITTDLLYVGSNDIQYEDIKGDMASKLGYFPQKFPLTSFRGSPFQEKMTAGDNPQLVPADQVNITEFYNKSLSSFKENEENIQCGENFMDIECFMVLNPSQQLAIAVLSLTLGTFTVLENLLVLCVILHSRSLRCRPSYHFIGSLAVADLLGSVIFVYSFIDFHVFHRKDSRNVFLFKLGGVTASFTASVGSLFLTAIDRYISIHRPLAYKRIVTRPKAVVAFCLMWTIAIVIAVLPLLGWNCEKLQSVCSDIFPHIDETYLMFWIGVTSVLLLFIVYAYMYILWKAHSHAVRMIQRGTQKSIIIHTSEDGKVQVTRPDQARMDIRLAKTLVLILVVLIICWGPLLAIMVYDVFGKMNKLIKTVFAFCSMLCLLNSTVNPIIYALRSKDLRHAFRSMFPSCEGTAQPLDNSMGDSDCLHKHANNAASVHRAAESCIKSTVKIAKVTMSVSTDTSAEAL

## CCCCCc1cc(O)c2c(c1)OC(C)(C)c1ccc(C)cc1-2 [CBN]
[1]
  affinity for CB one receptor, lower than THC: 2 fold
[2]
  affinity for CB 2 receptor, higher than THC: 3 fold

## CCCCCc1cc(O)c(C/C=C(\C)CCC=C(C)C)c(O)c1C(=O)O [CBGA]
[3]
  consumption of CBGA: complete consumption

## CCCCCc1cc(O)c2c(c1)OC(C)(C)[C@@H]1CCC(C)=C[C@@H]21 [THC]
[4]; 20 min
  THC remaining: only a trace
[5]
  concentration at which THC saturates in cannabis tea: about 10 mg/L
[6]; relative to hydrocortisone
  anti-inflammatory activity relative to hydrocortisone: two times
[6]; times the activity of aspirin
  anti-inflammatory activity relative to aspirin: 20 times
[7]
  analgesic effect in pain patients: provided analgesic effects
[8]; 120° C. closed reactor
  loss of total THC (THC A+ THC) from the starting condition: approximately 10%
[8]; open reactor, 100° C. (212° F.), FIG. 6C
  loss of THC relative to 120° C. closed reactor: about 28%
[8]; open reactor, 110° C. (230° F.), FIG. 6d
  loss compared to that maximally achieved at 120° C. in the closed reactor: about 28%

## CCCCCc1cc(O)c(C/C=C(\C)CCC=C(C)C)c(O)c1 [CBG]
[3]; in the time decarboxylation is maximized
  loss of total CBG: 50%

## CCCCCc1cc(O)c2c(c1)OC(C)(C)[C@@H]1CC=C(C)C[C@@H]21 [Delta 8 THC]
[9]
  psychoactive effect: no psychoactive effect

## C=C(C)[C@@H]1CCC(C)=C[C@H]1c1c(O)cc(CCCCC)cc1O [CBD, cannabidiol]
[10]; 2.5 mg dose every eight hours
  average concentration: approximately 1 micromolar
[10]; 25 mg CBD three times daily, 75 mg daily
  average concentration: about 9.4 micromolar
[10]; 80 mg dose
  average concentration over 24 hours: 10 µM
[10]; 8 milligrams dose
  average concentration over 24 hours: 0.32 ng per ML
  average concentration over 24 hours, as molarity: about one micromolar
[10]; single dose of 4 mg
  average concentration over 24 hours: 0.16 ng/mL
[8]; 80° C. and 90° C., FIG. 6A, 6B
  degradation judged from sum of CBDA and CBD concentration: no degradation
[8]; [20]
  degradation judged from sum of CBDA and CBD concentration: loss
[8]; 110° C., cannabis oil in an open vial in an oven, FIG. 6D
  time to peak CBD: 90 min
[8]; 120° open reactor, FIG. 6E
  loss of converted CBD compared to the closed reactor at the same temperature: 45-55%
[11]
  time to peak CBD: 135 min
[12]; ranges widely for different subjects
  AUC for CBD, average: about 4 ng hour per ML
[12]; single dose, variable between individuals
  return to baseline after a single dose: ≤ 10 h
[13]
  action induced by CBD: Decreased activation of alpha1 adrenoreceptors and u-opioid receptors: Activation of alpha1 adrenoreceptors and u-opioid
[14]
  action induced by CBD: Decreased human keratinocyte proliferation: Human keratinocyte proliferation
[15]
  action induced by CBD: Increased or activated TRPV1 receptor: TRPV1 receptor
[16]
  action induced by CBD: Increased or activated signs of neuroprotection: Signs of neuroprotection
[17]
  action induced by CBD: Increased or activated Membrane stability: Membrane stability
[18]
  action induced by CBD: Ativated 5HT-1a receptor: 5HT-1a receptor

## C=C1CC[C@H]2O[C@]2(C)CC[C@@H]2[C@@H]1CC2(C)C [Caryophyllene Oxide]
[19]; at 8% concentration
  time in which effective in onychomycosis: 15 days
[19]; in vivo
  clinical onychomycosis efficacy versus reference drugs: efficacy similar to cyclopiroxolamine and sulconazole

## C=C(C)[C@@H]1CCC(C)=C[C@H]1c1c(O)cc(CCCCC)c(C(=O)O)c1O [CBDA]
[4]
  time to full conversion (decarboxylation): fully converted in under a minute
[8]; 80° C. and 90° C., FIG. 6A, 6B
  degradation judged from sum of CBDA and CBD concentration: no degradation
[8]; [20]
  degradation judged from sum of CBDA and CBD concentration: loss
[8]; 120° C. open reactor, FIG. 6E, incomplete conversion to CBD
  loss of CBDA: rapid loss

## CCCCCc1cc2c(c(O)c1C(=O)O)[C@@H]1C=C(C)CC[C@H]1C(C)(C)O2 [THCA]
[4]
  time to full conversion (decarboxylation): fully converted in under a minute
